# In patent US6274715A, “Tricyclic erythromycin derivatives” (priority 1997, dated 2001):
# Legend:
# [1] = tested on: KLEBSIELLA PNEUMONIAE ATCC 8045; test: In vitro antibacterial activity, MIC, BHI agar dilution; format: cell-based; details: K. pneumoniae ATCC 8045, unit assumed
# [2] = tested on: STAPHYLOCOCCUS EPIDERMIDIS 3519; format: cell-based; details: S. epidermidis 3519; BHI agar; unit assumed
# ESCHERICHIA COLI JUHL = format: cell-based; details: E. coli JUHL; BHI agar; unit assumed
# [3] = tested on: STAPHYLOCOCCUS AUREUS NCTC10649M; test: In vitro antibacterial activity, MIC, BHI agar dilution; format: cell-based; details: S. aureus NCTC10649M, unit assumed
# [4] = tested on: STAPHYLOCOCCUS AUREUS CMX 553; test: as above; format: cell-based; details: S. aureus CMX 553, unit assumed
# [5] = tested on: STAPHYLOCOCCUS AUREUS 1775; test: as above; format: cell-based; details: S. aureus 1775, unit assumed
# PSEUDOMONAS CEPACIA 296I = test: as above; format: cell-based; details: P. cepacia 296I, unit assumed
# Grarn-negative bacteria = details: background statement; cited from earlier work
# ESCHERICHIA COLI KNK 437 = format: cell-based; details: E. coli KNK 437; BHI agar; unit assumed
# [6] = tested on: STREPTOCOCCUS PYOGENES 930; test: In vitro antibacterial activity, MIC, BHI agar dilution; format: cell-based; details: S. pyogenes 930, unit assumed
# [7] = tested on: PSEUDOMONAS AERUGINOSA 5007; test: as above; format: cell-based; details: P. aeruginosa 5007, unit assumed
# [8] = tested on: STAPHYLOCOCCUS AUREUS ATCC 6538P; test: as above; format: cell-based; details: S. aureus ATCC 6538P, 35-37° C., 20 to 24 hours, unit assumed
# [9] = tested on: ENTEROBACTER AEROGENES ATCC 13048; test: as above; format: cell-based; details: E. aerogenes ATCC 13048, unit assumed
# [10] = tested on: STREPTOCOCCUS PYOGENES EES61; test: as above; format: cell-based; details: S. pyogenes EES61, unit assumed
# EN[…] ATCC 8043 = test: as above; format: cell-based; details: E. faecium ATCC 8043, unit assumed
# In short: (§1)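 MIC was read visually as the lowest drug level with no growth, a slight haze or sparsely isolated colonies relative to a compound-free growth control. Organisms were spotted at 1:100 dilution (1:10 for slow-growing strains) onto Brain Heart Infusion agar containing serial compound dilutions and incubated 20 to 24 hours at 35-37° C.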
# M[…] ATCC 9341 = test: as above; format: cell-based; details: M. luteus ATCC 9341, unit assumed
# In short: as §1
# M[…] ATCC 4698 = test: as above; format: cell-based; details: M. luteus ATCC 4698, unit assumed
# In short: as §1
# STR[…] 508 = test: as above; format: cell-based; details: S. agalactiae CMX 508, unit assumed
# In short: as §1
# ESCHERICHIA COLI SS = test: as above; format: cell-based; details: E. coli SS, unit assumed
# [11] = tested on: PROVIDENCIA STUARTII CMX 640; format: cell-based; details: P. stuartii CMX 640; BHI agar; unit assumed
# CANDIDA ALBICANS CCH 442 = test: In vitro antibacterial activity, MIC, BHI agar dilution; format: cell-based; details: C. albicans CCH 442, unit assumed
# H. Influenza Dill AMP R = test: In vitro antibacterial activity against H. Influenza Dill AMP R, MIC; format: cell-based; details: separate assay, unit assumed
# In short: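 Agar dilution in Brain Heart Infusion agar, twelve successive compound dilutions, inoculated by Steers replicator with 1:100 (1:10 for slow growers) culture dilutions. Incubation 35-37° C. for 20 to 24 hours; MIC is lowest concentration giving no growth, slight haze or sparse colonies versus drug-free control.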
# [12] = tested on: STREPTOCOCCUS BOVIS A-5169; test: In vitro antibacterial activity, MIC, BHI agar dilution; format: cell-based; details: S. bovis A-5169, unit assumed
# [13] = tested on: PSEUDOMONAS AERUGINOSA K799/61; test: as above; format: cell-based; details: P. aeruginosa K799/61, unit assumed
# [14] = tested on: STAPHYLOCOCCUS AUREUS A5177; test: as above; format: cell-based; details: S. aureus A5177, unit assumed
# [15] = tested on: STAPHYLOCOCCUS AUREUS CMX 642A; test: as above; format: cell-based; details: S. aureus CMX 642A, unit assumed
# [16] = tested on: STREPTOCOCCUS PYOGENES PIU 2548; test: as above; format: cell-based; details: S. pyogenes PIU 2548, unit assumed
# [17] = tested on: PSEUDOMONAS AERUGINOSA DPHD-2862; test: as above; format: cell-based; details: P. aeruginosa DPHD-2862, unit assumed
# [18] = tested on: PSEUDOMONAS AERUGINOSA K799/WT; test: as above; format: cell-based; details: P. aeruginosa K799/WT, unit assumed
# [19] = tested on: PSEUDOMONAS AERUGINOSA BMH10; test: as above; format: cell-based; details: P. aeruginosa BMH10, unit assumed
# ESCHERICHIA COLI DC-2 = test: as above; format: cell-based; details: E. coli DC-2, unit assumed
# ESCHERICHIA COLI H560 = test: as above; format: cell-based; details: E. coli H560, unit assumed
# [20] = tested on: STAPHYLOCOCCUS AUREUS A-5278; test: as above; format: cell-based; details: S. aureus A-5278, unit assumed
# [21] = tested on: MYCOBACTERIUM SMEGMATIS ATCC 114; test: as above; format: cell-based; details: M. smegmatis ATCC 114, unit assumed
# [22] = tested on: PSEUDOMONAS AERUGINOSA DPHD-5263; test: as above; format: cell-based; details: P. aeruginosa DPHD-5263, unit assumed
# [23] = tested on: ACINETOBACTER CALCOACETICUS CMX 669; test: as above; format: cell-based; details: A. calcoaceticus CMX 669, unit assumed
SMILES,MIC [1],MIC [2],MIC (ESCHERICHIA COLI JUHL),MIC [3],MIC [4],MIC [5],MIC (PSEUDOMONAS CEPACIA 296I),MIC (ESCHERICHIA COLI KNK 437),MIC [6],MIC [7],MIC [8],MIC [9],MIC [10],MIC (EN[…] ATCC 8043),MIC (M[…] ATCC 9341),MIC (M[…] ATCC 4698),MIC (STR[…] 508),MIC (ESCHERICHIA COLI SS),MIC [11],MIC (CANDIDA ALBICANS CCH 442),further results
"CC[C@H]1OC(=O)[C@H](C)[C@@H](O[C@H]2C[C@@](C)(OC)[C@@H](O)[C@H](C)O2)[C@H](C)[C@@H](O[C@@H]2O[C@H](C)C[C@H](N(C)C)[C@H]2O)[C@](C)(O)C[C@@H](C)C(=O)[C@H](C)[C@@H](O)[C@]1(C)O [Ery A, Erythromycin A, reference compound]",100 µg/mL,0.39 µg/mL,100 µg/mL,0.2 µg/mL,0.2 µg/mL,> 100 µg/mL,> 100 µg/mL,50 µg/mL,> 100 µg/mL,> 100 µg/mL,0.2 µg/mL,100 µg/mL,0.05 µg/mL,0.05 µg/mL,0.02 µg/mL,0.2 µg/mL,0.05 µg/mL,0.2 µg/mL,> 100 µg/mL,> 100 µg/mL,activity against Gram-negative bacteria (Grarn-negative bacteria): only weak activity; MIC (H. Influenza Dill AMP R): 4 µg/mL; MIC [12]: 0.05 µg/mL; MIC [13]: 0.78 µg/mL; MIC [14]: 6.2 µg/mL; MIC [15]: 0.39 µg/mL; MIC [16]: 6.2 µg/mL; MIC [17]: > 100 µg/mL; MIC [18]: 50 µg/mL; MIC [19]: > 100 µg/mL; MIC (ESCHERICHIA COLI DC-2): > 100 µg/mL; MIC (ESCHERICHIA COLI H560): 25 µg/mL; MIC [20]: > 100 µg/mL; MIC [21]: 0.02 µg/mL; MIC [22]: > 100 µg/mL
CC[C@H]1OC(=O)[C@H](C)C(=O)[C@H](C)[C@@H](O[C@@H]2O[C@H](C)C[C@H](N(C)C)[C@H]2O)[C@](C)(OC)C[C@@H](C)C2=N[C@H](CCOCc3ccccc3)CN3C(=O)O[C@@]1(C)[C@H]3[C@H]2C [Example 92],> 100 µg/mL,0.39 µg/mL,> 100 µg/mL,0.39 µg/mL,0.39 µg/mL,> 100 µg/mL,> 100 µg/mL,> 100 µg/mL,100 µg/mL,> 100 µg/mL,0.39 µg/mL,> 100 µg/mL,0.05 µg/mL,0.1 µg/mL,0.05 µg/mL,0.39 µg/mL,0.05 µg/mL,1.56 µg/mL,> 100 µg/mL,> 100 µg/mL,MIC (H. Influenza Dill AMP R): 32 µg/mL; MIC [12]: 0.05 µg/mL; MIC [13]: 6.2 µg/mL; MIC [14]: 0.2 µg/mL; MIC [23]: > 100 µg/mL; MIC [15]: 0.39 µg/mL; MIC [16]: 0.39 µg/mL; MIC [17]: > 100 µg/mL; MIC [18]: > 100 µg/mL; MIC [19]: > 100 µg/mL; MIC (ESCHERICHIA COLI DC-2): > 100 µg/mL; MIC (ESCHERICHIA COLI H560): > 100 µg/mL; MIC [20]: > 100 µg/mL; MIC [21]: 1.56 µg/mL; MIC [22]: > 100 µg/mL
